Literature values as cited in publication PMC11728000, “Antitumor Activity and Multi-Target Mechanism of Phenolic Schiff Bases Bearing Methanesulfonamide Fragments: Cell Cycle Analysis and a Molecular Modeling Study” (International Journal of Molecular Sciences, 2024).

Key:
NCI-H23 = system: NCI-H23; set-up: method as in https://dtp.cancer.gov/dtpstandard/dwindex/index.jsp; conditions: ref https://dtp.cancer.gov/dtpstandard/dwindex/index.jsp; cited from earlier work
CAKI-1 = system: CAKI-1; set-up: method as in https://dtp.cancer.gov/dtpstandard/dwindex/index.jsp; conditions: ref https://dtp.cancer.gov/dtpstandard/dwindex/index.jsp; cited from earlier work
A498 = system: A498; set-up: method as in https://dtp.cancer.gov/dtpstandard/dwindex/index.jsp; conditions: ref https://dtp.cancer.gov/dtpstandard/dwindex/index.jsp; cited from earlier work
[1] = system: 59 human cancer cell lines; conditions: full panel mean-graph midpoint, ref https://dtp.cancer.gov/dtpstandard/dwindex/index.jsp, cited from earlier work
MDA-MB-435 = system: MDA-MB-435; set-up: method as in https://dtp.cancer.gov/dtpstandard/dwindex/index.jsp; conditions: ref https://dtp.cancer.gov/dtpstandard/dwindex/index.jsp; cited from earlier work
[2] = system: Colon Cancer subpanel tumor cell lines; conditions: cited from earlier work
OVCAR-5 = system: OVCAR-5; set-up: method as in https://dtp.cancer.gov/dtpstandard/dwindex/index.jsp; conditions: ref https://dtp.cancer.gov/dtpstandard/dwindex/index.jsp; cited from earlier work
MCF-7 = system: MCF-7; set-up: method as in https://dtp.cancer.gov/dtpstandard/dwindex/index.jsp; conditions: ref https://dtp.cancer.gov/dtpstandard/dwindex/index.jsp; cited from earlier work
MDA-MB-468 = system: MDA-MB-468; set-up: method as in https://dtp.cancer.gov/dtpstandard/dwindex/index.jsp; conditions: ref https://dtp.cancer.gov/dtpstandard/dwindex/index.jsp; cited from earlier work
786-0 = system: 786-0; set-up: method as in https://dtp.cancer.gov/dtpstandard/dwindex/index.jsp; conditions: ref https://dtp.cancer.gov/dtpstandard/dwindex/index.jsp; cited from earlier work
[3] = system: Breast Cancer subpanel tumor cell lines; conditions: cited from earlier work
NCI/ADR-RES = system: NCI/ADR-RES; set-up: method as in https://dtp.cancer.gov/dtpstandard/dwindex/index.jsp; conditions: ref https://dtp.cancer.gov/dtpstandard/dwindex/index.jsp; cited from earlier work
TK-10 = system: TK-10; set-up: method as in https://dtp.cancer.gov/dtpstandard/dwindex/index.jsp; conditions: ref https://dtp.cancer.gov/dtpstandard/dwindex/index.jsp; cited from earlier work
[4] = system: CNS Cancer subpanel tumor cell lines; conditions: cited from earlier work
SF-268 = system: SF-268; set-up: method as in https://dtp.cancer.gov/dtpstandard/dwindex/index.jsp; conditions: ref https://dtp.cancer.gov/dtpstandard/dwindex/index.jsp; cited from earlier work
UACC-257 = system: UACC-257; set-up: method as in https://dtp.cancer.gov/dtpstandard/dwindex/index.jsp; conditions: ref https://dtp.cancer.gov/dtpstandard/dwindex/index.jsp; cited from earlier work
ACHN = system: ACHN; set-up: method as in https://dtp.cancer.gov/dtpstandard/dwindex/index.jsp; conditions: ref https://dtp.cancer.gov/dtpstandard/dwindex/index.jsp; cited from earlier work
HCC-2998 = system: HCC-2998; set-up: method as in https://dtp.cancer.gov/dtpstandard/dwindex/index.jsp; conditions: ref https://dtp.cancer.gov/dtpstandard/dwindex/index.jsp; cited from earlier work
NCI-H226 = system: NCI-H226; set-up: method as in https://dtp.cancer.gov/dtpstandard/dwindex/index.jsp; conditions: ref https://dtp.cancer.gov/dtpstandard/dwindex/index.jsp; cited from earlier work
IGROV1 = system: IGROV1; set-up: method as in https://dtp.cancer.gov/dtpstandard/dwindex/index.jsp; conditions: ref https://dtp.cancer.gov/dtpstandard/dwindex/index.jsp; cited from earlier work
SK-MEL-28 = system: SK-MEL-28; set-up: method as in https://dtp.cancer.gov/dtpstandard/dwindex/index.jsp; conditions: ref https://dtp.cancer.gov/dtpstandard/dwindex/index.jsp; cited from earlier work
DU-145 = system: DU-145; set-up: method as in https://dtp.cancer.gov/dtpstandard/dwindex/index.jsp; conditions: ref https://dtp.cancer.gov/dtpstandard/dwindex/index.jsp; cited from earlier work
U251 = system: U251; set-up: method as in https://dtp.cancer.gov/dtpstandard/dwindex/index.jsp; conditions: ref https://dtp.cancer.gov/dtpstandard/dwindex/index.jsp; cited from earlier work
NCI-H460 = system: NCI-H460; set-up: method as in https://dtp.cancer.gov/dtpstandard/dwindex/index.jsp; conditions: ref https://dtp.cancer.gov/dtpstandard/dwindex/index.jsp; cited from earlier work
MALME-3M = system: MALME-3M; set-up: method as in https://dtp.cancer.gov/dtpstandard/dwindex/index.jsp; conditions: ref https://dtp.cancer.gov/dtpstandard/dwindex/index.jsp; cited from earlier work
SNB-75 = system: SNB-75; set-up: method as in https://dtp.cancer.gov/dtpstandard/dwindex/index.jsp; conditions: ref https://dtp.cancer.gov/dtpstandard/dwindex/index.jsp; cited from earlier work
[5] = system: Ovarian Cancer subpanel tumor cell lines; conditions: cited from earlier work
A549/ATCC = system: A549/ATCC; set-up: method as in https://dtp.cancer.gov/dtpstandard/dwindex/index.jsp; conditions: ref https://dtp.cancer.gov/dtpstandard/dwindex/index.jsp; cited from earlier work
CCRF-CEM = system: CCRF-CEM; set-up: method as in https://dtp.cancer.gov/dtpstandard/dwindex/index.jsp; conditions: ref https://dtp.cancer.gov/dtpstandard/dwindex/index.jsp; cited from earlier work
MDA-MB-231/ATCC = system: MDA-MB-231/ATCC; set-up: method as in https://dtp.cancer.gov/dtpstandard/dwindex/index.jsp; conditions: ref https://dtp.cancer.gov/dtpstandard/dwindex/index.jsp; cited from earlier work
HT29 = system: HT29; set-up: method as in https://dtp.cancer.gov/dtpstandard/dwindex/index.jsp; conditions: ref https://dtp.cancer.gov/dtpstandard/dwindex/index.jsp; cited from earlier work
OVCAR-8 = system: OVCAR-8; set-up: method as in https://dtp.cancer.gov/dtpstandard/dwindex/index.jsp; conditions: ref https://dtp.cancer.gov/dtpstandard/dwindex/index.jsp; cited from earlier work
SN12C = system: SN12C; set-up: method as in https://dtp.cancer.gov/dtpstandard/dwindex/index.jsp; conditions: ref https://dtp.cancer.gov/dtpstandard/dwindex/index.jsp; cited from earlier work
KM12 = system: KM12; set-up: method as in https://dtp.cancer.gov/dtpstandard/dwindex/index.jsp; conditions: ref https://dtp.cancer.gov/dtpstandard/dwindex/index.jsp; cited from earlier work
UO-31 = system: UO-31; set-up: method as in https://dtp.cancer.gov/dtpstandard/dwindex/index.jsp; conditions: ref https://dtp.cancer.gov/dtpstandard/dwindex/index.jsp; cited from earlier work
EKVX = system: EKVX; set-up: method as in https://dtp.cancer.gov/dtpstandard/dwindex/index.jsp; conditions: ref https://dtp.cancer.gov/dtpstandard/dwindex/index.jsp; cited from earlier work
[6] = system: Leukemia subpanel tumor cell lines; conditions: cited from earlier work
LOX IMVI = system: LOX IMVI; set-up: method as in https://dtp.cancer.gov/dtpstandard/dwindex/index.jsp; conditions: ref https://dtp.cancer.gov/dtpstandard/dwindex/index.jsp; cited from earlier work
[7] = read-out: GI50, subpanel average, ref https://dtp.cancer.gov/dtpstandard/dwindex/index.jsp
[8] = read-out: LC50, subpanel average, ref https://dtp.cancer.gov/dtpstandard/dwindex/index.jsp
[9] = ref https://dtp.cancer.gov/dtpstandard/dwindex/index.jsp

Q: With `C#Cc1cccc(Nc2ncnc3cc(OCCOC)c(OCCOC)cc23)c1` [Erlotinib, erlotinib] as the compound, how does the GI50 (NCI-H23) read?
A: Its GI50 is 31.6 µM.

Q: What about the GI50 (CAKI-1) of the same compound?
A: Its GI50 is 199 nM.

Q: What about the GI50 (A498) of the same compound?
A: Its GI50 is 2510 nM.

Q: And the “TGI MG-MID” value [1]?
A: Its value is 66.3 µM.

Q: And the GI50 ([1]; read-out: GI50 MG-MID)?
A: Its GI50 is 7.68 µM.

Q: And the CC50 ([1]; read-out: LC50 MG-MID)?
A: The CC50 was 95.6 µM.

Q: And the GI50 (MDA-MB-435)?
A: The GI50 was 19.9 µM.

Q: What about the GI50 [2, 7] of the same compound?
A: Its GI50 is 51.7 µM.

Q: And the CC50 [2, 8]?
A: The CC50 was over 100 µM.

Q: And the “TGI, subpanel average” value [2, 9]?
A: The value was “c (compounds showed values ≥ 100 μM)”.

Q: And the GI50 (OVCAR-5)?
A: Its GI50 is 7.94 µM.

Q: What about the GI50 (MCF-7) of the same compound?
A: Its GI50 is 100 µM.

Q: And the GI50 (MDA-MB-468)?
A: The GI50 was 126 nM.

Q: And the GI50 (786-0)?
A: The GI50 was 10 µM.

Q: What about the GI50 [3, 7] of the same compound?
A: The GI50 was 24.7 µM.

Q: And the CC50 [3, 8]?
A: Its CC50 is 96.4 µM.

Q: And the “TGI, subpanel average” value [3, 9]?
A: The value was 70.53 µM.

Q: And the GI50 (NCI/ADR-RES)?
A: Its GI50 is 7.94 µM.

Q: And the GI50 (TK-10)?
A: Its GI50 is 251 nM.

Q: And the GI50 [4, 7]?
A: Its GI50 is 17 µM.

Q: What about the CC50 [4, 8] of the same compound?
A: Its CC50 is over 100 µM.

Q: What about the “TGI, subpanel average” value [4, 9] of the same compound?
A: The value was 82.11 µM.

Q: And the GI50 (SF-268)?
A: Its GI50 is 15.8 µM.

Q: What about the GI50 (UACC-257) of the same compound?
A: Its GI50 is 100 µM.

Q: What about the GI50 (ACHN) of the same compound?
A: The GI50 was 199 nM.

Q: What about the GI50 (HCC-2998) of the same compound?
A: The GI50 was 79.4 µM.

Q: What about the GI50 (NCI-H226) of the same compound?
A: Its GI50 is 39.8 µM.

Q: What about the GI50 (IGROV1) of the same compound?
A: Its GI50 is 316 nM.

Q: And the GI50 (SK-MEL-28)?
A: Its GI50 is 50.1 µM.

Q: What about the GI50 (DU-145) of the same compound?
A: Its GI50 is 1990 nM.

Q: And the GI50 (U251)?
A: Its GI50 is 25.1 µM.

Q: What about the GI50 (NCI-H460) of the same compound?
A: Its GI50 is 6.31 µM.

Q: What about the GI50 (MALME-3M) of the same compound?
A: The GI50 was 1580 nM.

Q: What about the GI50 (SNB-75) of the same compound?
A: Its GI50 is 12.6 µM.

Q: And the GI50 [5, 7]?
A: Its GI50 is 5.52 µM.

Q: And the CC50 [5, 8]?
A: The CC50 was 97.1 µM.

Q: What about the “TGI, subpanel average” value [5, 9] of the same compound?
A: Its value is 74.41 µM.

Q: What about the GI50 (A549/ATCC) of the same compound?
A: The GI50 was 10 µM.

Q: What about the GI50 (CCRF-CEM) of the same compound?
A: Its GI50 is 50.1 µM.

Q: And the GI50 (MDA-MB-231/ATCC)?
A: The GI50 was 6.31 µM.

Q: And the GI50 (HT29)?
A: Its GI50 is 63.1 µM.

Q: And the GI50 (OVCAR-8)?
A: The GI50 was 7.94 µM.

Q: And the GI50 (SN12C)?
A: The GI50 was 1580 nM.

Q: What about the GI50 (KM12) of the same compound?
A: Its GI50 is 79.4 µM.

Q: And the GI50 (UO-31)?
A: Its GI50 is 1000 nM.

Q: What about the GI50 (EKVX) of the same compound?
A: Its GI50 is 199 nM.

Q: What about the GI50 [6, 7] of the same compound?
A: Its GI50 is 27.9 µM.

Q: And the CC50 [6, 8]?
A: The CC50 was over 100 µM.

Q: What about the “TGI, subpanel average” value [6, 9] of the same compound?
A: Its value is 96.57 µM.

Q: And the GI50 (LOX IMVI)?
A: Its GI50 is 6.31 µM.
